Reference: ChEMBL document CHEMBL3286248, “Easily accessible polycyclic amines that inhibit the wild-type and amantadine-resistant mutants of the M2 channel of influenza A virus” (J Med Chem, 2014)
Structures can show the parent of a compound that is named as a salt. Calls of active or inactive are those of the source. No cut-off for these calls is given here.

Experiments:
MDCK = format: cell-based, Canis lupus familiaris; conditions: dog, 72 h
[1] = Cytotoxicity against MDCK cells assessed as alteration in cell morphology after 72 hrs; format: cell-based, Canis lupus familiaris; conditions: dog
Influenza B virus = test: Antiviral activity against Influenza B virus (B/HK/5/72) infected in MDCK cells; format: functional, cell-based; conditions: B/Hong Kong/05/1972
[2] = target: Matrix protein 2 (Influenza A virus (A/Udorn/307/1972(H3N2)), UniProt P0DOF8); format: cell membranes, Influenza A virus (A/udorn/1972(H3N2))
[3] = target: Matrix protein 2 (Influenza A virus (A/Udorn/307/1972(H3N2))) (UniProt P0DOF8); format: cell membranes; conditions: Influenza A virus (A/udorn/1972(H3N2))
Chain of Matrix protein 2 (Influenza A virus (A/Udorn/307/1972(H3N2))) (P0DOF8 whole entry): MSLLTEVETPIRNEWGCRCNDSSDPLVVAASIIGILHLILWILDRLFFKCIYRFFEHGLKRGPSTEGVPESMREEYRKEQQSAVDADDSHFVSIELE

Chain of Matrix protein 2 (Influenza A virus (A/Udorn/307/1972(H3N2)), UniProt P0DOF8) (P0DOF8 whole entry): as above

| Compound | CC50 (MDCK) | MCC at 72 h [1] | Activity (Influenza B virus) | IC50 [2] | inhibition [3] |
| --- | --- | --- | --- | --- | --- |
| CC12CC34CNCC35CC1(C)C(C)(C5)C2(C)C4 (stereo not given) | 49 µM | 100 µM | inactive |  |  |
| N=C(N)N1CC2C3CCC(C4CC34)C2C1 (stereo not given) | 41 µM | 100 µM | inactive | 1.64 µM |  |
| CC12CC34CN(C(=N)N)CC35CC1(C)C(C)(C5)C2(C)C4 (stereo not given) | 15 µM | ≥ 4 µM | inactive |  |  |
| CC(N)C12CC3CC(CC(C3)C1)C2 (stereo not given) [RIMANTADINE HYDROCHLORIDE] | 230 µM |  | inactive |  |  |
| C1CC(N2CC3C4CCC(C5CC45)C3C2)CCN1 (stereo not given) | 9 µM | 20 µM | inactive |  | inactive |
| C1CC2C1C1CCC2C2CNCC12 (stereo not given) | 1.9 µM | 4 µM | inactive | 1.24 µM |  |
| N=C(N)N1CC2C3C=CC(C4CC34)C2C1 (stereo not given) | 39 µM | 100 µM | inactive | 1.5 µM |  |
| NC12CC3CC(CC(C3)C1)C2 [AMANTADINE] | > 500 µM | ≥ 500 µM | inactive |  |  |
| C1CC2C3CNCC3C1C1CC21 (stereo not given) | 49 µM | 100 µM | inactive | 3.38 µM |  |
| C1=CC2C3CC3C1C1CN(C3CCNCC3)CC21 (stereo not given) | 46 µM | 100 µM | inactive |  | inactive |
| C1=CC2C3CNCC3C1C1CC21 (stereo not given) | 54 µM | 100 µM | inactive | 2.92 µM |  |
| N=C(N)N1CC2C3C=CC(C4C=CC43)C2C1 (stereo not given) | 9.4 µM | 20 µM | inactive | 4.93 µM |  |
| N=C(N)N1CC2C3CCC(C4CCC43)C2C1 (stereo not given) | 1.9 µM | 4 µM | inactive |  |  |
| C1=CC2C1C1C=CC2C2CNCC12 (stereo not given) | 4.9 µM | 15 µM | inactive | 5.54 µM |  |
